We go through 15 compounds from patent US20070010428A1, “Inhibitors of signal transduction and activator of transcription 3” (priority 2004, published 2007).

One assay has as its system SH2 domain of Stat3. In words: IC50 FP (nM). The protocol: Table printed on a drawing sheet, FIGURE 14a
Head of the field: IC50 FP (nM)
First copying reader's note: The column headed 'Structure' holds only drawn chemical structures (left empty here); the written peptidomimetic sequence stands in an unheaded column to its left.
Where the first naming reader finds the target: passage: The small peptidomimetics were assayed for their ability to bind to the SH2 domain of Stat3 using fluoresence polarization.

Assay [1] addresses T1, Stat3 (Homo sapiens, UniProt P40763). The note with it: cited from earlier work.
Assay [2] deals with Stat3-responsive α2-macroglobulin promoter. In words: IL-6 stimulated luciferase reporter under α2-macroglobulin promoter in HEPG2 cells. The format is cell-based. The note with it: for inhibition of luciferase activity, initial screen: IL-6. Here is the method:
Liver hepatoma cells, HEPG2, when stimulated with IL-6, respond by increased phosphorylation of Stat3, which translocates to the nucleus and initiates transcription of acute response phase genes, such as a2-macroglobulin. HEPG2 cells were transfected with luciferase gene construct containing the α2-macroglobulin promoter. Cells were treated with peptides 21, 24, and 25 for 1 hr before stimulation with IL-6. Four hours later cells were lysed and luciferase activity was assayed (FIG. 9). […] Phosphopeptide 24 reduced induction to 60-70% of that of IL-6 at 50 and 100 μM.
(§1) Cell culture and transient transfection. HepG2 cells were grown in DMEM containing 10% fetal bovine serum. Cells were plated at a density of 3×10^5 per 6cm dish. Next day, plasmids were transfected with a plasmid comprised of firefly luciferase under the α2-macroglobulin promoter (Ren & Schaefer, 2002) at a ratio of 1 μg DNA to 3 μl Fugene-6 reagent according to the protocol supplied by Roche. After 48 hours, cells were treated with different peptides in serum free media for 1 hour, and then stimulated with […] IL-6. Cells were harvested at the time indicated.
Luciferase assay. Luciferase assay reagents were purchased from Promega and the assays performed according to the manufacturer's protocol. In brief, cells were washed twice with ice-cold PBS and then collected. After centrifugation at 4,500 rpm for 1 minute, cells were lysed in 1× lysis buffer (Promega) at room temperature for 30 minutes. The lysate was cleared by centrifugation at 13,000 rpm for 10 minutes. Then 50 μl of luciferase substrate was added to 10 μl of supernatant and the luciferase value was read by luminometer (Pharmingen). Each transfection was normalized to concomitant β-galactosidase expression from a control transfected plasmid pYN3214-lacZ.

Assay [3] concerns the target T1, Stat3. In words: Stat3 nuclear translocation, EMSA of nuclear extracts of IL-6 stimulated HepG2 cells. The format is cell-based. The note with it: HepG2, 100 μM for 1 hr, IL-6 15 min. The protocol: FIG. 11 is an image of a gel showing EMSA of nuclear extracts of HEPG2 cells inhibited with peptides. Shown are gels from two independent experiments. Lane 1, control: no IL-6 or inhibitor. Lane 2-6 are all stimulated with IL-6, 6 ng/mL. Lane 2, no inhibitor, Lane 3 phosphopeptide 24, Lane 4, control peptide 25, Lane 5, F2PmCinn peptide 21, Lane 6, prodrug 23.
HepG2 cells were treated with 100 μM peptide for 1 hr. Cells were stimulated with IL-6 and 15 min later cells were lysed and nuclear extracts were obtained.
(§2) Nuclear extract was extracted as previously described (Andrews and Faller, 1991). Equal amount of nuclear extract protein was then incubated with ^32P labeled high-affinity c-sis-inducible element (hSIE; 5′-[…]-3′ , SEQ ID NO:25) (Santa Cruz). The reactions were performed in a total volume of 24 μl in buffer consisting of 10 mM HEPES (pH 7.8), 50 mM KCl, 1 mM EDTA, 5 mM MgCl2, 10% glycerol, 5 mM dithiothreitol, 1 mg of bovine serum albumin per ml, 0.5 mM phenyl-methylsulfonylflouride, and 1 mM Na3VO4 with 1 μg of poly (dI-dC) and 0.3 ng of ^32P-labeled hSIE. Following incubation for 15 min at room temperature, the reactions were electrophoresed on 4% native polyacrylamide gets. […] The screen was then scanned and the bands showing Stat3-DNA binding were quantified using the Storm System (Molecular Dynamics).

The subject of assay [4] is Stat3-responsive α2-macroglobulin promoter. The assay is described as follows: IL-6 stimulated luciferase reporter in Hep3B cells. Particulars: FIG. 10. The format is cell-based. Here is the method: Peptidomimetic 23 was tested for the ability to inhibit luciferase induction in a second hepatoma cell line: Hep3B. Identical procedures as for the HEPG2 experiments above were used in this cell line.
as §1
Luciferase assay. Luciferase assay reagents were purchased from Promega and the assays performed according to the manufacturer's protocol. In brief, cells were washed twice with ice-cold PBS and then collected. After centrifugation at 4,500 rpm for 1 minute, cells were lysed in 1× lysis buffer (Promega) at room temperature for 30 minutes. The lysate was cleared by centrifugation at 13,000 rpm for 10 minutes. Then 50 μl of luciferase substrate was added to 10 μl of supernatant and the luciferase value was read by luminometer (Pharmingen). […]

The target in assay [5] is T1, Stat3. The assay is described as follows: EMSA of inhibition of Stat3 dimerization and DNA binding by phosphopeptides. The format is biochemical. Particulars: averages of two determinations. Here is the method: To find a lead compound for inhibitor development, a series of phospho-hexapeptides derived from known receptor docking sites for Stat3 were synthesized and assayed for their ability to inhibit Stat3 dimerization and DNA binding using electrophoretic mobility shift assays (EMSA) (Ren et al., 2003). […] SAR experiments were conducted systematically replacing each amino acid. The goal was to find non-peptidic groups that would be stable to phosphatases and proteases, and that would be more hydrophobic to allow greater bioavailability. […] The small peptidomimetics were assayed for their ability to bind to the SH2 domain of Stat3 using fluoresence polarization.
as §2, with “hSIE.” for “hSIE. Following incubation for 15 min at room temperature, the reactions were electrophoresed on 4% native polyacrylamide gets.”

Another assay deals with T2, full length Stat3 (Homo sapiens, UniProt P40763).
T2 construct: Aliquots of 50 μl of 80 nM full length Stat^3a and 20 nM of probe
T2 sequence (P40763 whole entry, species assumed): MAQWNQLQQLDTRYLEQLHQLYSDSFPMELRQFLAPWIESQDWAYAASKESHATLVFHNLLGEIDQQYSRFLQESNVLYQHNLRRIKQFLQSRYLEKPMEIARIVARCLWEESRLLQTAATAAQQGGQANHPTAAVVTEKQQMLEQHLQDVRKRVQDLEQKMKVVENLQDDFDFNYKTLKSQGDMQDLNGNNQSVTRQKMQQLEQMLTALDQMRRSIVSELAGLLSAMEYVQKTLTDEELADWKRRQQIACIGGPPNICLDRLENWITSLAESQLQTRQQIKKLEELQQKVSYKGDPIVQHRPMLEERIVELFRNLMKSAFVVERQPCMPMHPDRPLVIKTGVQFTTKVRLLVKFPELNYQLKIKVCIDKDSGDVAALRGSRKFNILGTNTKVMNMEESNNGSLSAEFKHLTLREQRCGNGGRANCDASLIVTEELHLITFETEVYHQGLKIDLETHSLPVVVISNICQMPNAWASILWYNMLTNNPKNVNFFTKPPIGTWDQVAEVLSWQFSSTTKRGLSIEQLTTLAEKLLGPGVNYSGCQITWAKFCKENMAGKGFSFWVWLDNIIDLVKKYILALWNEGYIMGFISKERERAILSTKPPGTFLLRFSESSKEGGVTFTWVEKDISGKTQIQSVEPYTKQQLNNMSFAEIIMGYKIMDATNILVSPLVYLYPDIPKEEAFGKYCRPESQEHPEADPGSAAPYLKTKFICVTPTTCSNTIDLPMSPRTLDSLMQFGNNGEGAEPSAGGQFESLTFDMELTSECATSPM
The assay is described as follows: Fluorescence polarization assay, competition with FP probe for full length Stat3. The format is binding. The protocol:
FIG. 5 is FP curves of Stat3. Left panel, Titration of full length Stat3 into 10 nM solutions of FP probe. Each protein concentration was run in duplicate and the mean ±½ the difference between the high and low value was plotted. […] Each peptide concentration was run in duplicate and the mean ±½ the difference between the high and low value was plotted. A Perkin Elmer (formerly Packard) 204DT Multiprobe liquid handling robot was used to prepare serial dilutions of the inhibitors and to add these solutions to Stat3-probe solutions. The dilutions and additions were done in 96-well plates and FP was read on a Tecan Polarian plate reader. […]
Fluorescence polarization (FP) is a rapid and easy method for the measurement of peptide-protein interactions, drug-protein interactions, and drug-oligonucleotide interactions, and is readily adaptable to high throughput formats (reviewed in Nasir & Joley, 1999; Owicki, 2000). FP involves exciting a fluorophore with polarized light and taking the ratio of fluorescence at right angles after a brief period of time. […]
Aliquots of 50 μl of 80 nM full length Stat^3a and 20 nM of probe in 50 mM NaCl, 10 mM Hepes, 1 mM Na4EDTA, 2 mM DTT, and 1% NP-40 were placed in wells of a 96 well black, opaque, non-stick microtiter plate. […] Fluorescence polarization was then read in a Tecan Polarian plate reader. […]

Like-named read-outs stand apart in the source and are kept apart here. Where a SMILES comes first, the peptide text is derived from it. [ ]: non-standard residue; d: D form. pY = N[C@@H](Cc1ccc(OP(=O)(O)O)cc1)C(=O)O; mts = not defined here

T1 sequence (P40763 whole entry, species assumed): as above

Turning to pInd-Cha-Pro-Gln- NHBn [9 | PM-67D], in the assay on SH2 domain of Stat3, the IC50 was 0.1 µM. For the compound pCinn-Leu-Pro-Gln- Thr-NH2 [5 | PM-50D], the IC50 in the assay with SH2 domain of Stat3 is 0.11 µM. As for “H-P[pY]LKTKAAVLLPVLLAAP-OH [SEQ ID NO:4]”, the “concentration required to inhibit luciferase reporter gene expression, Stat3 nuclear translocation, and cell growth” value at Stat3 [1] (cell culture, Turkson et al.) was 0.5 to 1 mM. As for “H-Pro-Tyr-Leu-Lys-Thr-Lys-Phe-Ile-mts (H-PYLKTKFI-mts; not fully specified; reading uncertain) [Peptide 26, reported by Turkson et al (2001), reference compound]”, the “inhibition of luciferase activity, initial screen” value in assay [2] (HEPG2, 100 μM) is “neither phosphopeptide 26 nor the unphosphorylated version, 27 (Turkson et al, 2001), showed inhibition of luciferase activity”.

For the compound pCinn-Cha-Pro-Gln- NHBn [7 | PM-66D], in the assay with SH2 domain of Stat3, the 50% inhibitory concentration (IC50) was 0.05 µM. As for “F2PmCinn-Leu-Pro-Gln-Thr-Val-Ala-Ala-Val-Leu-Leu-Pro-Val-Leu-Leu-Ala-Ala-Pro-NH2 [Peptide 21]”, the “inhibition of Stat3 translocation to the nucleus” value at Stat3 [3] was “inhibited Stat3 translocation to the nucleus”. Also, the “luciferase activity, % of untreated cells” value in assay [2] (HEPG2, 50 μM) was 50%; in assay [2] (HEPG2, 100 μM), 25%. “F2Pm(POM)Cinn-Haic-Gln-NHBn [Compound 23]”: the “inhibition of Stat3 translocation to the nucleus” value at Stat3 [3] is “inhibited Stat3 translocation to the nucleus”. In addition, the “reduction in luciferase activity” value in assay [4] is reported as “dose dependant reduction in luciferase activity”. In the case of `CC(=O)N[C@@H](Cc1ccc(OP(=O)(O)O)cc1)C(=O)N[C@@H](CC(C)C)C(=O)N[C@@H](CCCCN)C(=O)N[C@H](C(=O)N[C@@H](CCCCN)C(=O)N[C@@H](Cc1ccccc1)C(N)=O)[C@@H](C)O` [Peptide 2, Ac-pTyr-Leu-Lys-Thr-Lys-Phe-NH2] (Ac-[pY]LKTKF-NH2), the IC50 on Stat3 [5] turned out to be 20 µM. The compound F2PmCinn-Cha-Pro- Gln-NHBn [8 | PM-88D] displayed a concentration for half-maximal inhibition (IC50) with SH2 domain of Stat3 of 2 µM.

On to `NC(=O)CCC(NC(=O)C1CCC2CCC(NC(=O)C=Cc3ccc(OP(=O)(O)O)cc3)C(=O)N21)C(=O)NCc1ccccc1` (stereo not drawn) [FIG. 15 compound], for which the half-inhibitory concentration (IC50) at full length Stat3 (assay not named, presumably fluorescence polarization, read-out: IC50 of the FIG. 15 compound) is 0.4 µM. Take `CC(=O)NC(Cc1ccc(OP(=O)(O)O)cc1)C(=O)NC1CCc2cccc3c2N(C1=O)C(C(=O)NC(CCC(N)=O)C(=O)NC(C(N)=O)C(C)O)C3` (stereo not drawn) [Compound 10, Ac-pTyr-Haic-Gln-Thr-NH2]: the IC50 on full length Stat3 (10 nM probe and 40 nM Stat3 final, read-out: IC50 (fluorescence polarization)) was in the range of 0.1 to 0.2 µM. With `CC(C)C[C@H](NC(=O)[C@H](Cc1ccc(OP(=O)(O)O)cc1)NC(=O)c1ccc(C#N)cc1)C(=O)O` [ISS 610], the “concentration required for activity in luciferase reporter and cell growth assays” value on Stat3 [1] (cell culture models, Turkson et al. (2004)) was 1 mM.

Take “Ac-pTyr-Leu-Pro-Gln-Thr-Val-mts (Ac-[pY]LPQTV-mts; reading uncertain; also: printed as Ac-pTyr-Leu-Pro-Gln-Thr-Val-mts) [Peptide 24]”: the “luciferase induction, % of that of IL-6” value in assay [2] (HEPG2, at 50 and 100 μM) is on record as 60-70%. “H-Pro-pTyr-Leu-Lys-Thr-Lys-Phe-Ile-mts (H-P[pY]LKTKFI-mts; reading uncertain; also: printed as H-Pro-pTyr-Leu-Lys-Thr-Lys-Phe-Ile-mts) [Peptide 27, reported by Turkson et al (2001), reference compound]”: the “inhibition of luciferase activity, initial screen” value in assay [2] (HEPG2, 100 μM) is “neither phosphopeptide 26 nor the unphosphorylated version, 27 (Turkson et al, 2001), showed inhibition of luciferase activity”. As to “Ac-Tyr-Leu-Pro-Gln-Thr-Val-mts (Ac-YLPQTV-mts; not fully specified; printed as Ac-Tyr-Leu-Pro-Gln-Thr-Val-mts; reading uncertain) [Peptide 25, non-phosphorylated control]”, the “reduction in luciferase activity” value in assay [2] (HEPG2, 50 or 100 μM, 1 hr before IL-6, lysed 4 h later) is on record as “no significant reduction in luciferase activity”.
